Key:
DLC8 = DLC8 (Homo sapiens, UniProt P63167); details: nine-residue peptide from the Bim protein (Lo et al.); cited from earlier work
wild-type FKBP = wild-type FKBP (Homo sapiens, UniProt P62942); details: wild-type FKBP versus FV; cited from earlier work
[1] = target: FKBPs with a single amino acid substitution, Phe36Val (FV) (Homo sapiens, UniProt P62942, F37V); details: FKBP Phe36Val (FV); cited from earlier work
PC3 cells = test: Dynein-mediated transport to the nuclear surface in cultured cells (fluorescence microscopy, FIG. 1); format: cell-based; details: rhodamine-labeled GFP plasmid conjugated to peptide, formulated with CD-IPEI at 5+/-, 1 μg plasmid, 5 hours exposure
Procedure: PC3 cells were plated at 100,000 cells/mL in 6-well plates containing a clean glass coverslip at the bottom of each well one day before transfection. For transfection, 1 μg of plasmid was mixed with a linear, cyclodextrin polycation (CD-IPEI) at 5+/− and mixed with cells in 1 mL of Opti-MEM. Transfection solution was removed 5 hours after exposure and replaced with complete media. Cells were washed with PBS, fixed with formalin (0.5 mL for 10 minutes), and washed 3 times with PBS. The coverslips were then removed from the wells and mounted on glass slides with Prolong Antifade (Molecular Probes, Eugene, Oreg.).

Sequence of wild-type FKBP (P62942 whole entry): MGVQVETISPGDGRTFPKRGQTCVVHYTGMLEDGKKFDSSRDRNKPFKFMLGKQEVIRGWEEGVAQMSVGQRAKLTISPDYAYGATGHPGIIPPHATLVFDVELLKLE
Sequence of FKBPs with a single amino acid substitution, Phe36Val (FV) (P62942 whole entry F37V): as the sequence (P62942 whole entry) above, with F37V counted along it
Sequence of DLC8 (P63167 whole entry, species assumed): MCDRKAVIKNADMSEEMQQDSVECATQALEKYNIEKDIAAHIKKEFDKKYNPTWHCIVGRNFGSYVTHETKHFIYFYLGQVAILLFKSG

Compound	DLC8 binding (DLC8)	lower affinity to the wild-type protein relative to Phe36Val FKBP (wild-type FKBP) [fold]	binding affinity [1]	transport of plasmid DNA toward the nucleus (PC3 cells)
MSCDKSTQT [nine-peptide from the Bim protein]	can bind DLC8			
CC[C@H](C(=O)N1CCCC[C@H]1C(=O)O[C@H](CCc1ccc(OC)c(OC)c1)c1cccc(OCC(=O)NCC(CNC(=O)COc2cccc([C@@H](CCc3ccc(OC)c(OC)c3)OC(=O)[C@@H]3CCCCN3C(=O)[C@@H](CC)c3cc(OC)c(OC)c(OC)c3)c2)CN(C)C)c1)c1cc(OC)c(OC)c(OC)c1 [AP20187]		1000	subnanomolar	
CSYSKETQPL [dynein-binding peptide]				facilitates transport toward the nucleus
CC[C@H](C(=O)N1CCCC[C@H]1C(=O)O[C@H](CCc1ccc(OC)c(OC)c1)c1cccc(OCC(=O)NCCNC(=O)COc2cccc([C@@H](CCc3ccc(OC)c(OC)c3)OC(=O)[C@@H]3CCCCN3C(=O)[C@@H](CC)c3cc(OC)c(OC)c(OC)c3)c2)c1)c1cc(OC)c(OC)c(OC)c1 [AP1903]		1000	subnanomolar	

— patent US20050053591A1, “Compositions and uses of motor protein-binding moieties” (Insert Therapeutics, Inc., priority 2002, published 2005)
